Results from ChEMBL document CHEMBL1133205, “Synthesis and biological properties of new glycosidic cationic lipids for DNA delivery” (2000).
Active and inactive are the calls of the source. The calls are words filed in the database; no cut-off is given here.

Key:
HeLa [1] = assay: Transfection efficiency of compound in delivering a plasmid bearing the sequence of luciferase gene under the dependence of human cytomegalo virus promoter into HeLa cells was evaluated; Inactive; assay type: functional, cell-based
HeLa [2] = assay: Transfection efficiency of compound in delivering a plasmid bearing the sequence of luciferase gene under the dependence of human cytomegalo virus promoter into HeLa cells was evaluated; Active; assay type: functional, cell-based
HeLa [3] = assay: Transfection efficiency of compound in delivering a plasmid bearing the sequence of luciferase gene as ratio of nM of vector/ug of DNA in HeLa cells; assay type: functional, Homo sapiens
NIH3T3 = assay: Transfection efficiency of compound in delivering a plasmid bearing the sequence of luciferase gene as ratio of nM of vector/ug of DNA in NIH3T3 cells; assay type: functional, Mus musculus

| Compound | Activity (HeLa [1]) | Activity (HeLa [2]) | Activity (HeLa [3]) | Activity (NIH3T3) |
| --- | --- | --- | --- | --- |
| CCCCCCCCCCCCCCCCCCN(CCCCCCCCCCCCCCCCCC)C(=O)c1ccccc1C(=O)OC[C@H]1O[C@H](OC)[C@H](OC(=O)CN)[C@@H](OC(=O)CN)[C@H]1OC(=O)CN | inactive | – | – | – |
| CCCCCCCCCCCCCCCCCCN(CCCCCCCCCCCCCCCCCC)C(=O)CCC(=O)OC[C@H]1O[C@H](OC)[C@H](OCCN)[C@@H](OCCN)[C@H]1OCCN | – | Active | 8 (nM of vector) (ug of DNA)-1 | 12 (nM of vector) (ug of DNA)-1 |
| CCCCCCCCCCCCCCCCCCN(CCCCCCCCCCCCCCCCCC)C(=O)CCC(=O)OC[C@H]1O[C@H](OC)[C@H](OC(=O)CN)[C@@H](OC(=O)CN)[C@H]1OC(=O)CN | inactive | – | – | – |
| CCCCCCCCCCCCCCCCCCN(CCCCCCCCCCCCCCCCCC)C(=O)c1ccccc1C(=O)OC[C@H]1O[C@H](OC)[C@H](OCCN)[C@@H](OCCN)[C@H]1OCCN | – | Active | 8 (nM of vector) (ug of DNA)-1 | 12 (nM of vector) (ug of DNA)-1 |
